Assay results from patent publication US6812036B2 (priority 2000, dated 2004).

Tested on: Antibody #1
Type: binding, mice

Structure (SMILES)	cross-reactivity
CC(=O)OC[C@]12[C@H](O)C(=O)C(C)=C[C@H]1O[C@@H]1[C@H](O)C[C@@]2(C)[C@]12CO2 [15-acetyl-deoxynivalenol]	358%
CC(=O)OC[C@]12C[C@H](OC(=O)CC(C)C)C(C)=C[C@H]1O[C@@H]1[C@H](O)[C@@H](O)[C@@]2(C)[C@]12CO2 [HT-2 toxin]	9%
